Values of other authors, collected in patent US11045550B2, “Use of an amino sugar as plasticizer” (Merck Patent GmbH, priority 2016, dated 2021).

What was measured:
[1] = at 144° C., literature data

CC(C)Cc1ccc(C(C)C(=O)O)cc1 (stereo not shown) [Ibuprofen]
Ibuprofen degraded when processed by HME [1]: 11.6%

CCC(C)n1ncn(-c2ccc(N3CCN(c4ccc(OCC5COC(Cn6cncn6)(c6ccc(Cl)cc6Cl)O5)cc4)CC3)cc2)c1=O (stereo not shown) [Itraconazole]
pKa (strongest basic): 3.92

CNC[C@@H](O)[C@@H](O)[C@H](O)[C@H](O)CO [Meglumine, D-(−)-N-Methylglucamine]
pKa value: 9.60

CCCc1nc2c(C)cc(-c3nc4ccccc4n3C)cc2n1Cc1ccc(-c2ccccc2C(=O)O)cc1 [Telmisartan]
pKa (strongest acidic): 3.65
